# Assay results taken from ChEMBL document CHEMBL4007423, “Discovery of quinone-directed antitumor agents selectively bioactivated by NQO1 over CPR with improved safety profile” (Eur J Med Chem, 2017).
# The source made the active and inactive calls. No cut-off for these calls is given here.
# Experiments:
# [1] = target: T1, NADPH--cytochrome P450 reductase (Homo sapiens, UniProt P16435); assay: Substrate activity at recombinant human CPR expressed in baculovirus infected insect cells assessed as compound reduction rate by measuring NADPH consumption per umol of enzyme preincubated for 3 mins followed by NADPH addition measured for 5 mins at 2 sec time interval by UV-Visible spectroscopic method; assay type: ADME
# T1 sequence (P16435 whole entry): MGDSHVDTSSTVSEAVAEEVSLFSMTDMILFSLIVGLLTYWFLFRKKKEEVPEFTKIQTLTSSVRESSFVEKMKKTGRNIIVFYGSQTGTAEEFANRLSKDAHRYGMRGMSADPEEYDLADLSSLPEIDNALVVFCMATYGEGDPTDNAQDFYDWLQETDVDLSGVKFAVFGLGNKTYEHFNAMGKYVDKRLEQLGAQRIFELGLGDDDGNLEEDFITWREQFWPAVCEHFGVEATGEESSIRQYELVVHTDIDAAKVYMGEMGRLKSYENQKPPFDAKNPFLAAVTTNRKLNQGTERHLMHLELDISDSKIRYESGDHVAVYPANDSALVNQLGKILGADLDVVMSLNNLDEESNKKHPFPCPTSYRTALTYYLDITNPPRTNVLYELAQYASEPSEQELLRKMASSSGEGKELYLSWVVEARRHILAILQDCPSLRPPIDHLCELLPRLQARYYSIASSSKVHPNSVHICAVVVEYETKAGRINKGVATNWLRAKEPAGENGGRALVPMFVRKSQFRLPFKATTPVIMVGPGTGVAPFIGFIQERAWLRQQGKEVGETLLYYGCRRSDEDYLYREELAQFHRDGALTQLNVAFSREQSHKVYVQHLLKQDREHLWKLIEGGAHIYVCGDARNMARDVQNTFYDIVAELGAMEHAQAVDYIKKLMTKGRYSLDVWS
# [2] = Electrochemical behavior of the compound assessed as electrochemical redox potential with reference to ferrocene at 1 mM using Ag/AgCl reference electrode measured up to -2 V at potential sweep rates of 50 mV/s by cyclic voltammetry
# Homo sapiens = organism: Homo sapiens; assay: Selectivity ratio of compound reduction rate catalyzed by recombinant human NQO1 expressed in Escherichia coli to compound reduction rate catalyzed by recombinant human CPR expressed in baculovirus infected insect cells
# [3] = Selectivity ratio of IC50 for substrate activity at CPR in human L02 cells assessed as cell growth inhibition to IC50 for substrate activity at NQO1 in human A549 cells assessed as cell growth inhibition
# [4] = target: T1, NADPH--cytochrome P450 reductase; assay: Substrate activity at CPR in human L02 cells assessed as CPR-mediated one-electron reduction of compound by measuring cell growth inhibition at 20 to 100 uM treated for >8 hrs measured after 72 hrs by MTT assay; assay type: cell-based
# A549 [5] = assay: Antitumor activity against human A549 cells xenografted in athymic nude mouse assessed as tumor growth inhibition at 30 mg/kg, iv administered every other day for 3 weeks measured twice per week during compound dosing relative to control; assay type: functional; settings: 504 h, read-out: TGI
# A549 [6] = assay: Antitumor activity against human A549 cells xenografted in athymic nude mouse assessed as tumor growth inhibition at 15 mg/kg, iv administered every other day for 3 weeks measured twice per week during compound dosing; assay type: functional, organism-based
# A549 [7] = assay: Cytotoxicity against NQO1 inhibitor dicoumarol pretreated human A549 cells assessed as cell growth inhibition treated for 24 hrs measured after 72 hrs by MTT assay; assay type: functional, cell-based
# Mus musculus [8] = assay: Toxicity in athymic nude mouse xenografted with human A549 cells assessed as change in body weight at 30 mg/kg, iv administered every other day for 3 weeks measured twice per week during compound dosing; assay type: organism-based; settings: in vivo, 504 h
# NCI-H596 = assay: Cytotoxicity against NQO1-deficient human NCI-H596 cells assessed as cell growth inhibition treated for 24 hrs measured after 72 hrs by MTT assay; assay type: functional, cell-based
# Mus musculus [9] = assay: Toxicity in athymic nude mouse xenografted with human A549 cells assessed as change in body weight at 15 to 30 mg/kg, iv administered every other day for 3 weeks measured twice per week during compound dosing; assay type: organism-based; settings: in vivo, 504 h
SMILES,Activity [1] [µmol/min],Activity [2] [V],Selectivity ratio (Homo sapiens),also measured
CC1(C)C=CC2=C(O1)C(=O)c1ccccc1C2=O [DEHYDRO-ALPHA-LAPACHONE],852,-1.22,0.91,
COc1cccc2c1C1=C(C(=O)C2=O)C(C)(C)C(C)O1 (configuration not stated),764,-1.1,,
Cc1coc2c1C(=O)C(=O)c1c(C)ccc(C)c1-2,672,-1.07,1.38,Ratio IC50 [3]: 5.86
COc1ccc2c(c1)C1=C(C(=O)C2=O)C(C)(C)C(C)O1 (configuration not stated),812,-1.13,,
Cc1ccc2c(c1)C(=O)C(=O)c1c(C)coc1-2,891,-1.04,1.82,Ratio IC50 [3]: 2.59
CC1(C)CC2=C(O1)c1ccccc1C(=O)C2=O [NOR-BETA-LAPACHONE],1427,,0.52,
COc1ccc2c(c1)C(=O)C(=O)C1=C2OC(C)C1(C)C (configuration not stated),782,-1.09,,
CC1OC2=C(C(=O)c3ccccc3C2=O)C1(C)C (stereo not drawn) [ALPHA-DUNNIONE],1011,-1.19,0.72,
CC1OC2=C(C(=O)C(=O)c3ccccc32)C1C (configuration not stated),659,,1.1,
CC1CC2=C(O1)c1ccccc1C(=O)C2=O (configuration not stated),905,,0.71,
Cc1cc2c(cc1C)-c1occc1C(=O)C2=O,400,,,
CC1(C)CCC2=C(O1)c1ccccc1C(=O)C2=O [LAPACHONE],923,-1.02,,growth inhibition (GI) [4]: Active; inhibition in vivo at 30 mg/kg (A549 [5]): 70.7%
Cc1cc(=O)n(C)c2c1C(=O)C1=C(C=CC(C)(C)O1)C2=O,1422,-0.9,0.81,
CC1(C)CCC2=C(O1)C(=O)c1ccccc1C2=O [ALPHA-LAPACHONE],1010,-1.22,0.72,
CCc1coc2c1C(=O)C(=O)c1ccccc1-2,1382,,0.54,
Cc1cc2c(cc1C)-c1occ(C)c1C(=O)C2=O,142,-1.09,,TGI (A549 [6]): Active; IC50 (A549 [7]): 21 µM; Activity (Mus musculus [8]): Non-Toxic; IC50 (NCI-H596): 35 µM; Activity (Mus musculus [9]): Non-Toxic; Ratio IC50 [3]: 10.6; inhibition in vivo at 30 mg/kg (A549 [5]): 67.5%
CCc1coc2c1C(=O)C(=O)c1cc(C)ccc1-2,796,,1.63,Ratio IC50 [3]: 8.06
CCc1coc2c1C(=O)C(=O)c1cc(C)c(C)cc1-2,818,,,
O=C1C(=O)c2ccoc2-c2ccccc21,1221,-0.98,1.18,
Cc1coc2c1C(=O)C(=O)c1ccccc1-2,1201,-1.03,0.63,
CC1OC2=C(C(=O)C(=O)c3ccccc32)C1(C)C (configuration not stated),1437,-1.01,0.7,
CCc1coc2c1C(=O)C(=O)c1ccc(C)cc1-2,1014,,1.17,
Cc1ccc2c(c1)-c1occ(C)c1C(=O)C2=O,835,-1.05,1.25,Ratio IC50 [3]: 1.54
